Laboratory results reported in patent US20210023113A1, “CONJUGATE OF CYTOTOXIC DRUG AND PRODRUG FORM OF SAID CONJUGATE” (priority 2018, published 2021).

Tests used:
[1] = target: T1, β-glucuronidase from Escherichia coli (Escherichia coli, UniProt P05804); assay: Kinetics of β-glucuronidase-induced release of MMAE in human plasma; type: biochemical; settings: after 7 minutes of incubation with β-glucuronidase, 37° C.
Description: Measurement of the Kinetics of β-glucuronidase-Induced Release of MMAE • Sample solution of R isomer was prepared by adding 10 μL of R5 (10 mM in DMSO) to 990 μL of human plasma and incubating at 37° C. for 20 min. • Sample solution of S isomer was prepared by adding 10 μL of S5 (10 mM in DMSO) to 990 μL of human plasma and incubating at 37° C. for 20 min. • Quenching solution (Q) was prepared by adding 50 μL of 1 M aqueous HCl to 1.5 mL of acetonitrile. • β-glucuronidase solution (Glu) was prepared by adding 20 μL of aqueous glycerol solution of β-glucuronidase from Escherichia coli (6.5 mg/mL) to 180 μL of H2O. • Reference solution (Ref) was prepared by adding 10 μL of MMAE (10 mM in DMSO) to 990 μL of human plasma and incubating at 37° C. for 20 min.
To 1 mL of each isomer and reference solution was added 40.9 uL of Glu. The resulting mixtures were incubated at 37° C. 45 μL aliquots of each solution were quenched with 155 μL of Q at the following time points: 1 min, 2 min, 3 min, 4 min, 5 min, 6 min and 7 min. Quenched aliquots were centrifuged at 15000 g for 5 min and the supernatant was analyzed by LCMS (Method 3) with Selected ion recording set to 719 Da (corresponding to [MMAE+H]^+). The amount of released MMAE at each time point was calculated as (sample peak area)/(reference peak area)×100% (FIG. 2).

[2] = Stability of R5 and S5 in aqueous buffer (PBS); type: physicochemical; settings: phosphate buffered saline pH 6.0, any time point
Description: Measurement of the Stability of R5 and S5 in Aqueous Buffer at pH 7.4 • Sample solution R5-PBS was prepared by adding 20 μL of R5 (10 mM in DMSO) to 180 μL of phosphate buffered saline (pH 7.4). • Sample solution S5-PBS was prepared by adding 20 μL of S5 (10 mM in DMSO) to 180 μL of phosphate buffered saline (pH 7.4). • Samples were incubated at 25° C. and analyzed by LCMS (Method 3) with Selected ion recording set to 924 Da (corresponding to [R5+2H]^2+/2 and [S5+2H]^2+/2) and to 933 Da (the main impurity being formed corresponding to hydrolyzed products [R5+H2O+2H]^2+/2 and [S5+H2O+2H]^2+/2). Samples were injected at the following time points: 0 min, 99 min, 195 min, 291 min, 387 min, 543 min, 699 min, 855 min, 980 min. Peak areas of the samples injected at 0 min were considered as reference peak areas. • % Peak Area was calculated as (924 Da peak area)/((924 Da peak area)+(933 Da peak area))×100%.
The same experiment was carried out in phosphate buffered saline at pH 6.0.

[3] = target: T2, serum albumin (Homo sapiens, UniProt P02768); assay: Plasma-binding kinetics of R5 and S5; type: in vitro ADME; settings: 37° C.
T2 construct: adding 10 μL of R5 (10 mM in DMSO) to 990 μL of human plasma and incubating at 37° C; from tissue; host or cells: human plasma
T2 sequence (P02768 25-609): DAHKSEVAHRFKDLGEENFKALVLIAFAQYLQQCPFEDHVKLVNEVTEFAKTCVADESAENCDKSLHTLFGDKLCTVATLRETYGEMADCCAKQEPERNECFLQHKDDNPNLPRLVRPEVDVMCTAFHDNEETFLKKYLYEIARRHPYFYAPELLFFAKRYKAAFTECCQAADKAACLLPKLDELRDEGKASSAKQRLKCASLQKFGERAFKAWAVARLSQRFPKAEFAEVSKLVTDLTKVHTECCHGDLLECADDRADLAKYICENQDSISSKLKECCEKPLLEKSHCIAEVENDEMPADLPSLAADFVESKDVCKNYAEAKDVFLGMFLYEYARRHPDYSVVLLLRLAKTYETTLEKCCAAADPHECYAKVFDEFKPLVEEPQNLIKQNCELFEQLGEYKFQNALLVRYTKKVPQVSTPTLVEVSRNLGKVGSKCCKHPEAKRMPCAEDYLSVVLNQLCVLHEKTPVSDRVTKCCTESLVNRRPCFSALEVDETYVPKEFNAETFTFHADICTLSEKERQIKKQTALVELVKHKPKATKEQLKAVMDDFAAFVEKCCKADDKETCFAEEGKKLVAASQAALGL
Description: Plasma-Binding Kinetics of R5 and S5 • Quenching solution (Q) was prepared by adding 50 μL of 1 M aqueous HCl to 1.5 mL of acetonitrile. • Sample solution R-Alb was prepared by adding 10 μL of R5 (10 mM in DMSO) to 990 μL of human plasma and incubating at 37° C. • Sample solution S-Alb was prepared by adding 10 μL of S5 (10 mM in DMSO) to 990 μL of human plasma and incubating at 37° C. • 45 μL aliquots of each sample solution were added to 155 μL of the quenching solution at the following time-points: 0 min, 1 min, 2 min, 3 min, 4 min, 5 min, 6 min, 7 min. • Quenched aliquots were centrifuged at 15000 g for 5 min and the supernatant was analyzed by LCMS (Method 3) with Selected ion recording set to 924 Da (corresponding to [R5+2H]^2+/2 and [S5+2H]^2+/2). Peak areas of the aliquots quenched at 0 min were considered as reference peak areas. • The % remaining free drug at each time point was calculated as (sample peak area)/(reference peak area)×100%.

[4] = target: T1, β-glucuronidase from Escherichia coli; assay: Kinetics of β-glucuronidase-induced release of a cytotoxic drug (general procedure, plasma/phosphate buffer); type: biochemical; settings: after 40 minutes of incubation with β-glucuronidase, 50/50 human plasma and potassium phosphate buffer pH 7.0, 25° C.
Description: General Procedure for the Measurement of the Kinetics of β-glucuronidase-Induced Release of a Cytotoxic Drug • Sample solution of R isomers was prepared by adding 5 μL of compounds R6, R7 or R8 (10 mM in DMSO) to 500 μL of a 50/50 mixture of human plasma and potassium phosphate buffer (0.1M, pH 7.0) and incubating at 37° C. for 20 min. • Sample solution of S isomers was prepared by adding 5 μL of compounds S6, S7 or S8 (10 mM in DMSO) to 500 μL of a 50/50 mixture of human plasma and potassium phosphate buffer (0.1M, pH 7.0) and incubating at 37° C. for 20 min. • Quenching solution (Q) was prepared by adding 50 μL of 1 M aqueous HCl to 1.5 mL of acetonitrile. • β-glucuronidase solution (Glu) was prepared by adding 20 μL of aqueous glycerol solution of β-glucuronidase from Escherichia coli (6.5 mg/mL) to 180 μL of H2O. • Reference solution (Ref) was prepared by adding 5 μL of a corresponding free cytotoxic drug (10 mM in DMSO) to 500 μL of a 50/50 mixture of human plasma and potassium phosphate buffer (0.1M, pH 7.0) and incubating at 37° C. for 20 min.
To each sample and reference solution was added 10 uL of Glu. The resulting mixtures were incubated at 25° C. 45 μL aliquots of each solution were quenched with 155 μL of Q at the precise time points indicated on the graphs (FIGS. 3-5). Quenched aliquots were centrifuged at 15000 g for 5 min and the supernatant was analyzed by LCMS (Method 3) with Selected ion recording set to [M+H]^+ where M corresponds to molecular mass of the free cytotoxic agent.
The amount of released cytotoxic agent at each time point was calculated as (sample peak area)/(reference peak area)×100%.

T1 sequence (P05804 whole entry): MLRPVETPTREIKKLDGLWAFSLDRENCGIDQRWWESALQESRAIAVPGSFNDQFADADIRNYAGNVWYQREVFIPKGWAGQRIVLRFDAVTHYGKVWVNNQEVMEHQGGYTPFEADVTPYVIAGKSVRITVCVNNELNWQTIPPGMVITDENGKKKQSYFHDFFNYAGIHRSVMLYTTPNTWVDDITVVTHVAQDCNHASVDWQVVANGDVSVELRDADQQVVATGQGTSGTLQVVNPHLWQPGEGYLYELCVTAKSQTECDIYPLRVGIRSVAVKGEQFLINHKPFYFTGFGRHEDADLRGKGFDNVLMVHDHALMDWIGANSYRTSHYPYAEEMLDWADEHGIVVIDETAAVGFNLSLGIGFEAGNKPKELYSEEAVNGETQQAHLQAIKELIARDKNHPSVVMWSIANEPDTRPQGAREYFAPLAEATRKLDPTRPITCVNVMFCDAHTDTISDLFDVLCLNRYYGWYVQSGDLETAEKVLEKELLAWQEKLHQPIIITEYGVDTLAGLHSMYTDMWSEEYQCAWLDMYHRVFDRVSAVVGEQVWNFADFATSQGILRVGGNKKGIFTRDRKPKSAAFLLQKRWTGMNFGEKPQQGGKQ

CC[C@H](C)[C@@H]([C@@H](CC(=O)N1CCC[C@H]1[C@H](OC)[C@@H](C)C(=O)N[C@H](C)[C@@H](O)c1ccccc1)OC)N(C)C(=O)[C@@H](NC(=O)[C@H](C(C)C)N(C)C(=O)O[C@@H](Cc1cn(CCOCCOCCOCCOCCOCCOCCOCCOCCOCCOCCNC(=O)CCCCCN2C(=O)C=CC2=O)nn1)c1ccc(O[C@@H]2O[C@H](C(=O)O)[C@@H](O)[C@H](O)[C@H]2O)c([N+](=O)[O-])c1)C(C)C [S5]
MMAE released from plasma-bound compound [1]: 12% | degradation of compound [2]: No degradation | compound bound to serum albumin ([3]; after 2 minutes of incubation): about 90% | conversion (binding to serum albumin) ([3]; after 4 minutes): total conversion

COc1cccc2c1C(=O)c1c(O)c3c(c(O)c1C2=O)C[C@@](O)(C(=O)CO)C[C@@H]3O[C@H]1C[C@H](NC(=O)O[C@@H](Cc2cn(CCOCCOCCOCCOCCOCCOCCOCCOCCOCCOCCNC(=O)CCCCCN3C(=O)C=CC3=O)nn2)c2ccc(O[C@H]3O[C@@H](C(=O)O)[C@H](O)[C@@H](O)[C@@H]3O)c([N+](=O)[O-])c2)[C@H](O)[C@H](C)O1 [S8]
Doxorubicin released from plasma-bound compound [4]: 80%

CCc1c2c(nc3ccc(OCc4ccc(NC(=O)O[C@@H](Cc5cn(CCOCCOCCOCCOCCOCCOCCOCCOCCOCCOCCNC(=O)CCCCCN6C(=O)C=CC6=O)nn5)c5ccc(O[C@H]6O[C@@H](C(=O)O)[C@H](O)[C@@H](O)[C@@H]6O)c([N+](=O)[O-])c5)cc4)cc13)-c1cc3c(c(=O)n1C2)COC(=O)[C@]3(O)CC [S7]
SN-38 released from plasma-bound compound [4]: 18%

CC[C@H](C)[C@@H]([C@@H](CC(=O)N1CCC[C@H]1[C@H](OC)[C@@H](C)C(=O)N[C@@H](Cc1ccccc1)C(=O)O)OC)N(C)C(=O)[C@@H](NC(=O)[C@H](C(C)C)N(C)C(=O)O[C@@H](Cc1cn(CCOCCOCCOCCOCCOCCOCCOCCOCCOCCOCCNC(=O)CCCCCN2C(=O)C=CC2=O)nn1)c1ccc(O[C@@H]2O[C@H](C(=O)O)[C@@H](O)[C@H](O)[C@H]2O)c([N+](=O)[O-])c1)C(C)C [S6]
MMAF released from plasma-bound compound [4]: 57%
